Results: publication PMC7403315, “Cyclic peptide FXII inhibitor provides safe anticoagulation in a thrombosis model and in artificial lungs” (Nature Communications, 2020)
Several values for one entry are separate records, joined by “and”; a condition that tells them apart may be missing. Equal entries are not always repeated. Starred links: 1 amine or outer side, 2 acyl side, 3 side chain; linkers in the order of their positions; H or OH if unused. Positions of bridges follow the written chain, without caps; N, C: chain ends. Non-standard residues stand in square brackets, D forms with d. Residues, ends and D or L forms follow the SMILES beside them. TATA = O=C(CC[*:1])N1CN(C(=O)CC[*:2])CN(C(=O)CC[*:3])C1; Phe(4-F) = N[C@@H](Cc1ccc(F)cc1)C(=O)O; β3hR = N=C(N)NCCC[C@H](N)CC(=O)O

What was measured:
Type in all cases: biochemical
[1] = target: T1, Mouse α-FXIIa (Mus musculus, UniProt Q80YC5); assay: FXIIa protease inhibition assay with fluorogenic substrate Boc-Gln-Gly-Arg-AMC
T1 construct: Mouse α-FXIIa; purchased Molecular Innovations MFXIIA
T1 sequence (Q80YC5 355-597 limits assumed): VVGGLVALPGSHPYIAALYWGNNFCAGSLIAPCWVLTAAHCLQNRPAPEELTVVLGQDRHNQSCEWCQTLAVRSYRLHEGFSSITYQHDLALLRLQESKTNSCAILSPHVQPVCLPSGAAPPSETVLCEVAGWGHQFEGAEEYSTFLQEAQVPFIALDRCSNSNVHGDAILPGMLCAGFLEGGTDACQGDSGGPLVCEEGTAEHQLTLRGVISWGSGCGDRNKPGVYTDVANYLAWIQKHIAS
T1 sequence (Q80YC5 20-354 limits assumed): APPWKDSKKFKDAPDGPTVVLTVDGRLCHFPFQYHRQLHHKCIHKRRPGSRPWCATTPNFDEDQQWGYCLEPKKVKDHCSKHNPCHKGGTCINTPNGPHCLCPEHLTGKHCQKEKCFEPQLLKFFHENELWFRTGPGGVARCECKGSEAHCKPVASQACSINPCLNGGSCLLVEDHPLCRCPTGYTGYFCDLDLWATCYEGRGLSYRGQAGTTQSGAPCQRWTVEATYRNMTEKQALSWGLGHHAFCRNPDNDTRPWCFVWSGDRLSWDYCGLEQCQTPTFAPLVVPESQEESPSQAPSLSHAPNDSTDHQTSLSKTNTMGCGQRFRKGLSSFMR
Description: (§1) In order to test the inhibitory activity of peptides without prior purification, we developed the following method. […] After solid-phase peptide synthesis, cleavage, and ether precipitation, the peptides were chemically cyclized and their Ki values were determined in a FXIIa activity assay using a fluorogenic substrate.
(§2) Protease inhibition assays
(§3) The inhibitory activity of peptides was determined by measuring the residual protease activity with a fluorogenic substrate. The assay was performed in buffer containing 10 mM Tris-Cl, pH […]
(§4) 1% (v/v) DMSO in a volume of 150 µl. FXIIa activity was measured with the fluorogenic substrate Boc-Gln-Gly-Arg-AMC (Bachem) at a final concentration of 50 µM. Mouse α-FXIIa (Molecular Innovations cat # MFXIIA) and human β-FXIIa (Molecular Innovations cat # HFXIIAB) were used at final concentrations of 0.4 nM. The reaction was pipetted as follows: 50 µl of bicyclic peptide in assay buffer were added to 50 µl of FXIIa in assay buffer and incubated for 10 minutes at 25°C before 50 µl of 150 µM fluorogenic substrate in assay buffer were added to measure the residual protease activity with an Infinite M200Pro fluorescence plate reader (excitation at 368 nm, emission at 467 nm; Tecan) for a period of 30 minutes with a read every minute at 25°C. The Tecan software i-control (version 1.1) was used for data analysis. Stock solutions of 1 mM bicyclic peptide were prepared by either dissolving the unpurified cyclization reaction with water or by dissolving purified and lyophilized peptide in water. The bicyclic peptides were serially diluted two-fold using assay buffer. Sigmoidal curves were fitted to the data using the following dose response equation (1), wherein x = peptide concentration, y = % protease activity, and p = Hill slope. IC50 values were derived from the fitted curve.
(§5) The inhibition constants (Ki) were calculated according to the equation of Cheng and Prusoff, Ki = IC50/(1+([S]0/Km), wherein IC50 is the functional strength of the inhibitor, [S]0 is the total substrate concentration, and Km is the Michaelis-Menten constant. […]
(§6) the substrate Boc-Gln-Gly-Arg-AMC. […]

[2] = target: T2, human β-FXIIa (Homo sapiens, UniProt P00748); assay: as above
T2 construct: human β-FXIIa (Molecular Innovations cat #); purchased Molecular Innovations HFXIIAB; host or cells: human blood
Description: as §1, §2, §3, §4, §5, §6

[3] = target: T3, Recombinant mouse FXII (Mus musculus, UniProt Q80YC5); assay: Inhibition of recombinant FXIIa (rFXIIa); details: read-out: Residual activity (%), Recombinant mouse FXII, individual plates
T3 sequence (Q80YC5 355-597 limits assumed): T1 sequence (Q80YC5 355-597 limits assumed)
T3 sequence (Q80YC5 20-354 limits assumed): T1 sequence (Q80YC5 20-354 limits assumed)

T2 sequence (P00748 373-615 limits assumed, other chains not shown): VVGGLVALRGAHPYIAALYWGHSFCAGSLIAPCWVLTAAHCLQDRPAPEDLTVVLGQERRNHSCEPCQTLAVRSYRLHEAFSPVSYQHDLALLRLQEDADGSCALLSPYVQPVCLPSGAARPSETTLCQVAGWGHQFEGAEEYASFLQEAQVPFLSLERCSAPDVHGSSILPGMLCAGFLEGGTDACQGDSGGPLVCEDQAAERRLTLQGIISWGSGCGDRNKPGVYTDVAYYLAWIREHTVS

CC(C)C[C@@H]1NC(=O)[C@H](CCC(N)=O)NC(=O)[C@H](Cc2c[nH]cn2)NC(=O)[C@@H]2CSCCC(=O)N3CN(CN(C3)C(=O)CCSC[C@H](NC(=O)[C@@H](CO)NC(=O)[C@H](N)CCCNC(=N)N)C(=O)N[C@@H](Cc3ccc(F)cc3)C(=O)N[C@@H](CCCNC(=N)N)C(=O)N[C@@H](CC(C)C)C(=O)N3CCC[C@H]3C(=O)N2)C(=O)CCSC[C@@H](C(N)=O)NC(=O)C[C@H](CCCNC(=N)N)NC1=O [FXII900] (H-[dR][dS]C[Phe(4-F)]RLPCHQL[β3hR]C-NH2; linker 3-8-13 via TATA)
Ki [1]: 0.45 ± 0.11 nM | Ki [2]: 0.37 ± 0.04 nM | Residual activity of human FXIIa ([2]; inhibitor 0.030518 nM, 30.52 pM): 89.8015% | Residual activity of human FXIIa ([2]; inhibitor 0.03125 nM, 31.25 pM): 91.2184% and 98.3306% | Residual activity of human FXIIa ([2]; inhibitor 0.061035 nM, 61.04 pM): 87.3761% | Residual activity of human FXIIa ([2]; inhibitor 0.0625 nM, 62.5 pM): 92.1225% and 95.5725% | Residual activity of human FXIIa ([2]; inhibitor 0.12207 nM, 0.00012207 µM): 78.5763% | Residual activity of human FXIIa ([2]; inhibitor 0.125 nM, 0.000125 µM): 82.8895% and 92.0812% | Residual activity of human FXIIa ([2]; inhibitor 0.244141 nM, 0.000244141 µM): 65.9451% | Residual activity of human FXIIa ([2]; inhibitor 0.488281 nM, 0.000488281 µM): 44.4485% | Residual activity of human FXIIa ([2]; inhibitor 0.5 nM, 0.0005 µM): 54.1096% and 47.3759% | Residual activity of human FXIIa ([2]; inhibitor 1 nM, 0.001 µM): 29.6346% and 29.527% | Residual activity of human FXIIa ([2]; inhibitor 1.95312 nM, 0.00195312 µM): 9.983% and 4.833% | Residual activity of human FXIIa ([2]; inhibitor 2 nM, 0.002 µM): 13.0658% and 11.4779% | Residual activity of human FXIIa ([2]; inhibitor 3.90625 nM, 0.00390625 µM): 2.681% and 0.3074% | Residual activity of human FXIIa ([2]; inhibitor 4 nM, 0.004 µM): 2.623% and 4.603% and 9.7% | Residual activity of human FXIIa ([2]; inhibitor 7.8125 nM, 0.0078125 µM): 1.017% and -0.1178% | Residual activity of human FXIIa ([2]; inhibitor 8 nM, 0.008 µM): 0.8848% and 2.033% and 3.493% | Residual activity of human FXIIa ([2]; inhibitor 15.625 nM, 0.015625 µM): 1.594% and 0.3357% | Residual activity of human FXIIa ([2]; inhibitor 0.976562 / 0.976563 nM, 0.000976563 µM): 20.4026% | remaining activity at 30.52 pM ([2]; read-out: Residual activity of human FXIIa, inhibitor 0.030518 nM): 92.8% | remaining activity at 31.25 pM ([2]; read-out: Residual activity of human FXIIa, inhibitor 0.03125 nM): 90.7% | remaining activity at 61.04 pM ([2]; read-out: Residual activity of human FXIIa, inhibitor 0.061035 nM): 102% | remaining activity at 62.5 pM ([2]; read-out: Residual activity of human FXIIa, inhibitor 0.0625 nM): 89.8% | remaining activity at 0.00012207 µM ([2]; read-out: Residual activity of human FXIIa, inhibitor 0.12207 nM): 77.3% | remaining activity at 0.000125 µM ([2]; read-out: Residual activity of human FXIIa, inhibitor 0.125 nM): 80.4% | remaining activity at 0.000244141 µM ([2]; read-out: Residual activity of human FXIIa, inhibitor 0.244141 nM): 66.6% | remaining activity at 0.000488281 µM ([2]; read-out: Residual activity of human FXIIa, inhibitor 0.488281 nM): 51.8% | remaining activity at 0.0005 µM ([2]; read-out: Residual activity of human FXIIa, inhibitor 0.5 nM): 46.7% | remaining activity at 0.001 µM ([2]; read-out: Residual activity of human FXIIa, inhibitor 1 nM): 24.6% | remaining activity at 0.002 µM ([2]; read-out: Residual activity of human FXIIa, inhibitor 2 nM): 8.92% | remaining activity at 0.03125 µM ([2]; read-out: Residual activity of human FXIIa, inhibitor 31.25 nM): 0% | remaining activity at 0.000976563 µM ([2]; read-out: Residual activity of human FXIIa, inhibitor 0.976562 / 0.976563 nM): 29.9% | remaining activity at 30.52 pM ([3]; peptide 0.030518 nM): 94.5% | remaining activity at 61.04 pM ([3]; peptide 0.061035 nM): 95% | remaining activity at 0.00012207 µM ([3]; peptide 0.12207 nM): 85.5% | remaining activity at 0.000244141 µM ([3]; peptide 0.244141 nM): 77.6% | remaining activity at 0.000488281 µM ([3]; peptide 0.488281 nM): 61.6% | remaining activity at 0.000976563 µM ([3]; peptide 0.976563 nM): 37.8% | remaining activity at 0.00195312 µM ([3]; peptide 1.95312 nM): 15.3% | remaining activity at 0.0078125 µM ([3]; peptide 7.8125 nM): 0.768% | remaining activity at 0.015625 µM ([3]; peptide 15.625 nM): 0% | remaining activity at 0.03125 µM ([3]; peptide 31.25 nM): 0%
